Test results published in the NIST ThermoML archive (doi:10.1016/j.fluid.2016.02.009).

Details: Liquid, Vibrating tube method

CCCCOCC [butyl ethyl ether]
Details | mass density [kg/m3]
283.15 K, 100 kPa | 759.63
283.15 K, 5000 kPa | 764.45
283.15 K, 10000 kPa | 768.96
283.15 K, 15000 kPa | 773.2
283.15 K, 20000 kPa | 777.2
283.15 K, 25000 kPa | 781.05
283.15 K, 30000 kPa | 784.72
283.15 K, 35000 kPa | 788.24
283.15 K, 40000 kPa | 791.65
283.15 K, 45000 kPa | 794.97
283.15 K, 50000 kPa | 798.13
283.15 K, 55000 kPa | 801.25
283.15 K, 60000 kPa | 804.23
283.15 K, 65000 kPa | 807.14
288.15 K, 100 kPa | 754.84
288.15 K, 5000 kPa | 759.82
288.15 K, 10000 kPa | 764.48
288.15 K, 15000 kPa | 768.83
288.15 K, 20000 kPa | 772.96
288.15 K, 25000 kPa | 776.9
288.15 K, 30000 kPa | 780.66
288.15 K, 35000 kPa | 784.28
288.15 K, 40000 kPa | 787.77
288.15 K, 45000 kPa | 791.13
288.15 K, 50000 kPa | 794.37
288.15 K, 55000 kPa | 797.51
288.15 K, 60000 kPa | 800.57
288.15 K, 65000 kPa | 803.54
293.15 K, 100 kPa | 750.02
293.15 K, 5000 kPa | 755.18
293.15 K, 10000 kPa | 759.98
293.15 K, 15000 kPa | 764.45
293.15 K, 20000 kPa | 768.69
293.15 K, 25000 kPa | 772.75
293.15 K, 30000 kPa | 776.62
293.15 K, 35000 kPa | 780.33
293.15 K, 40000 kPa | 783.87
293.15 K, 45000 kPa | 787.34
293.15 K, 50000 kPa | 790.66
293.15 K, 55000 kPa | 793.86
293.15 K, 60000 kPa | 796.96
293.15 K, 65000 kPa | 799.99
298.15 K, 100 kPa | 745.17
298.15 K, 5000 kPa | 750.51
298.15 K, 10000 kPa | 755.44
298.15 K, 15000 kPa | 760.05
298.15 K, 20000 kPa | 764.43
298.15 K, 25000 kPa | 768.58
298.15 K, 30000 kPa | 772.55
298.15 K, 35000 kPa | 776.36
298.15 K, 40000 kPa | 780.01
298.15 K, 45000 kPa | 783.52
298.15 K, 50000 kPa | 786.91
298.15 K, 55000 kPa | 790.19
298.15 K, 60000 kPa | 793.36
298.15 K, 65000 kPa | 796.44
303.15 K, 100 kPa | 740.3
303.15 K, 5000 kPa | 745.81
303.15 K, 10000 kPa | 750.9
303.15 K, 15000 kPa | 755.66
303.15 K, 20000 kPa | 760.15
303.15 K, 25000 kPa | 764.45
303.15 K, 30000 kPa | 768.49
303.15 K, 35000 kPa | 772.35
303.15 K, 40000 kPa | 776.1
303.15 K, 45000 kPa | 779.71
303.15 K, 50000 kPa | 783.18
303.15 K, 55000 kPa | 786.51
303.15 K, 60000 kPa | 789.75
303.15 K, 65000 kPa | 792.89
308.15 K, 100 kPa | 735.39
308.15 K, 5000 kPa | 741.09
308.15 K, 10000 kPa | 746.35
308.15 K, 15000 kPa | 751.24
308.15 K, 20000 kPa | 755.87
308.15 K, 25000 kPa | 760.26
308.15 K, 30000 kPa | 764.45
308.15 K, 35000 kPa | 768.44
308.15 K, 40000 kPa | 772.26
308.15 K, 45000 kPa | 775.95
308.15 K, 50000 kPa | 779.48
308.15 K, 55000 kPa | 782.89
308.15 K, 60000 kPa | 786.19
308.15 K, 65000 kPa | 789.36
313.15 K, 100 kPa | 730.45
313.15 K, 5000 kPa | 736.34
313.15 K, 10000 kPa | 741.76
313.15 K, 15000 kPa | 746.82
313.15 K, 20000 kPa | 751.59
313.15 K, 25000 kPa | 756.09
313.15 K, 30000 kPa | 760.38
313.15 K, 35000 kPa | 764.5
313.15 K, 40000 kPa | 768.36
313.15 K, 45000 kPa | 772.14
313.15 K, 50000 kPa | 775.74
313.15 K, 55000 kPa | 779.22
313.15 K, 60000 kPa | 782.57
313.15 K, 65000 kPa | 785.85
318.15 K, 100 kPa | 725.44
318.15 K, 5000 kPa | 731.57
318.15 K, 10000 kPa | 737.2
318.15 K, 15000 kPa | 742.41
318.15 K, 20000 kPa | 747.31
318.15 K, 25000 kPa | 751.96
318.15 K, 30000 kPa | 756.38
318.15 K, 35000 kPa | 760.54
318.15 K, 40000 kPa | 764.55
318.15 K, 45000 kPa | 768.4
318.15 K, 50000 kPa | 772.07
318.15 K, 55000 kPa | 775.65
318.15 K, 60000 kPa | 779.08
318.15 K, 65000 kPa | 782.35
323.15 K, 100 kPa | 720.43
323.15 K, 5000 kPa | 726.77
323.15 K, 10000 kPa | 732.59
323.15 K, 15000 kPa | 738
323.15 K, 20000 kPa | 743.03
323.15 K, 25000 kPa | 747.78
323.15 K, 30000 kPa | 752.29
323.15 K, 35000 kPa | 756.59
323.15 K, 40000 kPa | 760.68
323.15 K, 45000 kPa | 764.61
323.15 K, 50000 kPa | 768.4
323.15 K, 55000 kPa | 771.97
323.15 K, 60000 kPa | 775.47
323.15 K, 65000 kPa | 778.87
328.15 K, 100 kPa | 715.37
328.15 K, 5000 kPa | 721.95
328.15 K, 10000 kPa | 727.94
328.15 K, 15000 kPa | 733.52
328.15 K, 20000 kPa | 738.72
328.15 K, 25000 kPa | 743.64
328.15 K, 30000 kPa | 748.27
328.15 K, 35000 kPa | 752.68
328.15 K, 40000 kPa | 756.87
328.15 K, 45000 kPa | 760.88
328.15 K, 50000 kPa | 764.73
328.15 K, 55000 kPa | 768.42
328.15 K, 60000 kPa | 771.99
328.15 K, 65000 kPa | 775.41
333.15 K, 100 kPa | 710.26
333.15 K, 5000 kPa | 717.05
333.15 K, 10000 kPa | 723.28
333.15 K, 15000 kPa | 729.03
333.15 K, 20000 kPa | 734.4
333.15 K, 25000 kPa | 739.43
333.15 K, 30000 kPa | 744.2
333.15 K, 35000 kPa | 748.71
333.15 K, 40000 kPa | 753.02
333.15 K, 45000 kPa | 757.13
333.15 K, 50000 kPa | 761.02
333.15 K, 55000 kPa | 764.8
333.15 K, 60000 kPa | 768.41
333.15 K, 65000 kPa | 771.92
